Source: patent US20230339916A1, “PLANT GROWTH REGULATOR COMPOUNDS” (SYNGENTA CROP PROTECTION AG, priority 2020, published 2023)

The compounds below were run on Corn leaf discs (variety Multitop) (assay: Dark induced senescence of corn leaf). Conditions: Zea mays, foliar, 192 h; corn leaf discs in the dark, 23° C., 75% humidity, 8 days; 100 μM-0.0001 μM, 0.5% DMSO; image analysis; read-out: IC50 (concentration at which 50% senescence was achieved).
Assay type: in vivo
Procedure: Corn plants of variety Multitop were grown in a greenhouse with relative 75% humidity and at 23-25° C. for 6 weeks. 1.4 cm diameter leaf discs were placed into 24-well plates containing test compounds in a concentration gradient (100 μM-0.0001 μM) at a final concentration of 0.5% DMSO. Each concentration was tested in 12 replicates. Plates were sealed with seal foil. The foil was pierced to provide gas exchange in each well. The plates were placed into the completely dark climatic chamber. Plates were incubated in the chamber with 75% humidity and at 23° C. for 8 days. On days 0, 5, 6, 7 and 8 photographs were taken of each plate, and image analysis conducted with a macro developed using the ImageJ software. The image analysis was used to determine the concentration at which 50% senescence was achieved (IC50), see Table 3. The lower the value, the higher senescence induction potency.

IC50, < 3000 nM:
CCOC(=O)/C(=C/OC1C=C(C)C(=O)O1)n1ccc2cc(F)ccc21 (stereo not shown) [Compound I-3-Z, ethyl (Z)-2-(5-fluoroindol-1-yl)-3-[(4-methyl-5-oxo-2H-furan-2-yl)oxy]prop-2-enoate]
CCOC(=O)/C(=C/OC1OC(=O)C(C)=C1C)n1nc(F)c2ccccc21 (stereo not shown) [Compound I-51-Z, ethyl (Z)-3-[(3,4-dimethyl-5-oxo-2H-furan-2-yl)oxy]-2-(3-fluoroindazol-1-yl)prop-2-enoate]
CCOC(=O)/C(=C/OC1OC(=O)C(C)=C1C)n1ccc2cc(C(F)(F)F)ccc21 (stereo not shown) [Compound I-8-Z, ethyl (Z)-3-[(3,4-dimethyl-5-oxo-2H-furan-2-yl)oxy]-2-[5-(trifluoromethyl)indol-1-yl]prop-2-enoate]
CC1=CC(O/C=C(/C(=O)N(C)C)n2nnc3ccccc32)OC1=O (stereo not shown) [Compound I-34-Z, (Z)-2-(benzotriazol-1-yl)-N,N-dimethyl-3-[(4-methyl-5-oxo-2H-furan-2-yl)oxy]prop-2-enamide]
CCOC(=O)/C(=C/OC1OC(=O)C(C)=C1C)n1ccc2nccnc21 (stereo not shown) [Compound I-90-Z, ethyl (Z)-3-[(3,4-dimethyl-5-oxo-2H-furan-2-yl)oxy]-2-pyrrolo[2,3-b]pyrazin-5-yl-prop-2-enoate]
CCOC(=O)/C(=C/OC1OC(=O)C(C)=C1C)n1c(=O)sc2ccccc21 (stereo not shown) [Compound I-65-Z]
CCOC(=O)/C(=C/OC1C=C(C)C(=O)O1)N1CCc2ccccc21 (stereo not shown) [Compound I-70-Z, ethyl (Z)-2-indolin-1-yl-3-[(4-methyl-5-oxo-2H-furan-2-yl)oxy]prop-2-enoate]
CCOC(=O)/C(=C/OC1OC(=O)C(C)=C1C)n1ccc2cc(F)ccc21 (stereo not shown) [Compound I-9-Z, ethyl (Z)-3-[(3,4-dimethyl-5-oxo-2H-furan-2-yl)oxy]-2-(5-fluoroindol-1-yl)prop-2-enoate]
CCOC(=O)/C(=C/OC1OC(=O)C(C)=C1C)n1cnc2c(N(C)C)nc(F)nc21 (stereo not shown) [Compound I-61-Z, ethyl (Z)-2-[6-(dimethylamino)-2-fluoro-purin-9-yl]-3-[(3,4-dimethyl-5-oxo-2H-furan-2-yl)oxy]prop-2-enoate]
CC1=CC(O/C=C(/C#N)n2ncc3ccccc32)OC1=O (stereo not shown) [Compound I-43-Z, (Z)-2-indazol-1-yl-3-[(4-methyl-5-oxo-2H-furan-2-yl)oxy]prop-2-enenitrile]
CCOC(=O)/C(=C/OC1C=C(C)C(=O)O1)n1nnc2ccccc21 (stereo not shown) [Compound I-31-Z, ethyl (Z)-2-(benzotriazol-1-yl)-3-[(4-methyl-5-oxo-2H-furan-2-yl)oxy]prop-2-enoate]
CCOC(=O)/C(=C/OC1OC(=O)C(C)=C1C)N1C(=O)CSc2ccccc21 (stereo not shown) [Compound I-79-Z, ethyl (Z)-3-[(3,4-dimethyl-5-oxo-2H-furan-2-yl)oxy]-2-(3-oxo-1,4-benzothiazin-4-yl)prop-2-enoate]
CCOC(=O)/C(=C/OC1C=C(C)C(=O)O1)n1cnc2ccccc21 (stereo not shown) [Compound I-56-Z, ethyl (Z)-2-(benzimidazol-1-yl)-3-[(4-methyl-5-oxo-2H-furan-2-yl)oxy]prop-2-enoate]
